Reference: patent US20140079717A1, “Compositions and Methods to Prevent Cell Transformation and Cancer Metastasis” (CORNELL UNIVERSITY, priority 2011, published 2014)

Legend:
NIH3T3 fibroblasts = experiment: Anchorage-independent growth assay (soft agar) on NIH3T3 fibroblasts incubated with MVs; assay type: cell-based; settings: NIH3T3 cells, U87 cell-derived MVs treated with AG1478
Experimental: FIG. 21. Anchorage-independent growth assays were performed on fibroblasts incubated with MDAMB231 cell-derived MVs treated without or with T101, the RGD-peptide, or the control RGE-peptide. Data represents the mean±s.d. from at least three independent experiments.
FIG. 34. MDAMB231 cell-derived MVs transform recipient MCF10A mammary epithelial cells. Anchorage-independent growth assays were performed on NIH3T3 fibroblasts incubated with U87 cell-derived MVs treated without or with the EGF receptor inhibitor AG1478. The culturing medium (including the MVs, T101, and AG1478) for the soft agar assays performed was replenished every third day for 12 days, at which time the colonies that formed were counted. […]
Parental NIH3T3 cells or MCF10A cells incubated without or with MVs derived from 5.0×10^6 MDAMB231 cells or U87 cells, or NIH3T3 cells stably overexpressing the vector-control, wild-type tTG, or Cdc42 F28L, were plated at a density of 7×10^3 cells/ml in medium containing 0.3% agarose, without or with various inhibitors as indicated, onto underlays composed of growth medium containing 0.6% agarose in six-well dishes. The soft agar cultures were re-fed (including the addition of freshly prepared MVs and treatments with various inhibitors as indicated) every third day for 12 days, at which time the colonies that formed were counted. […]

MDAMB231 cells [1] = experiment: Shedding of MVs by MDAMB231 cells, immunoblot of flotillin-2 and tTG in MV lysates; assay type: cell-based, human; settings: MDAMB231 cells treated with inhibitor
Text: FIG. 39. Serum-starved MDAMB231 cells treated without or with the tTG inhibitors T101 and MDC (left panel), transfected with either control siRNA (siCont) or two distinct tTG siRNAs (siTG-1 and siTG-2) (middle panel), or treated without or with the inhibitors of classical secretion, BFA and Exo1 (right panel), were lysed (WCLs) and the MVs released into the medium by the cells were also collected and lysed. The extracts were immunoblotted with antibodies against tTG, the MV-marker flotillin-2, and the cytosolic-specific-marker IκBα.
For each of the experiments that used MV preparations, the conditioned medium from 5.0×10^6 serum-starved MDAMB231 cells or U87 cells (which is the equivalent of two nearly confluent 150 MM dishes of either of these cell lines) were collected and the MVs isolated from the medium as previously described. […]
The protein concentrations of the whole cell lysates (WCLs) were determined using the Bio-Rad DC protein assay, while the MV lysates were normalized for comparison by isolating them from the conditioned medium of 5.0×10^6 serum-starved MDAMB231 cells or U87 cells for each of the experimental conditions assayed, and then lysing in 250 μl of cell lysis buffer. […] The primary antibodies were detected with horseradish peroxidase-conjugated secondary antibodies (Amersham Biosciences) followed by exposure to ECL reagent.

MDAMB231 cells [2] = experiment: MV formation by MDAMB231 cells, immunofluorescence with tTG antibody; assay type: cell-based, human; settings: serum-starved MDAMB231 cells treated with inhibitor
Experimental: FIG. 38. Serum-starved MDAMB231 cells treated without or with T101, MDC, BFA, or Exo1, were immuno-stained with a tTG antibody. Shown are representative images of the cells exposed to the various inhibitors. Cells forming MVs are denoted with arrows.
(§1) The MDAMB231, U87, MCF10A, and HeLa cell lines were grown in RPMI 1640 medium containing 10% fetal bovine serum, while the NIH3T3 cell line was grown in DMEM medium containing 10% calf serum. Expression constructs were transfected into cells using Lipofectamine, whereas the control and tTG siRNAs were introduced into cells with Lipofectamine 2000. As indicated, cells were incubated with serum-free medium containing combinations of 0.1 μg/ml EGF, 100 μM MDC, 10 μM T101, 10 μM BFA, and 10 μM Exo1. To mitotically arrest MDAMB231 cells, plates of cells were treated with 10 μg/ml mitomycin-C for 2 hours, before rinsing the solution away and allowing the cells to recover in growth medium (RPMI-1640 medium containing 10% FBS) for a day.
Cells were fixed with 3.7% paraformaldehyde and then some samples were permeabilized with phosphate-buffered saline (PBS) containing 0.1% Triton X-100. Permeabilized and non-permeabilized samples were incubated with a tTG antibody, and then incubated with Oregon green 488-conjugated secondary antibody. Rhodamine-conjugated phalloidin was used to stain actin and DAPI was used to stain nuclei. The cells were visualized by fluorescent microscopy and the images were captured and processed using IPLABS.

tTG = molecular target: T1, tTG (Homo sapiens, UniProt P21980); experiment: Transamidation activity of intact MDAMB231 cell-derived MVs (incorporation of BPA into casein); assay type: biochemical; settings: pre-treatment of intact MDAMB231 cell-derived MVs with inhibitor
T1 construct: endogenous in cells; host or cells: microvesicles shed by serum-starved MDAMB231 (and U87) cells
T1 sequence (P21980 1-687): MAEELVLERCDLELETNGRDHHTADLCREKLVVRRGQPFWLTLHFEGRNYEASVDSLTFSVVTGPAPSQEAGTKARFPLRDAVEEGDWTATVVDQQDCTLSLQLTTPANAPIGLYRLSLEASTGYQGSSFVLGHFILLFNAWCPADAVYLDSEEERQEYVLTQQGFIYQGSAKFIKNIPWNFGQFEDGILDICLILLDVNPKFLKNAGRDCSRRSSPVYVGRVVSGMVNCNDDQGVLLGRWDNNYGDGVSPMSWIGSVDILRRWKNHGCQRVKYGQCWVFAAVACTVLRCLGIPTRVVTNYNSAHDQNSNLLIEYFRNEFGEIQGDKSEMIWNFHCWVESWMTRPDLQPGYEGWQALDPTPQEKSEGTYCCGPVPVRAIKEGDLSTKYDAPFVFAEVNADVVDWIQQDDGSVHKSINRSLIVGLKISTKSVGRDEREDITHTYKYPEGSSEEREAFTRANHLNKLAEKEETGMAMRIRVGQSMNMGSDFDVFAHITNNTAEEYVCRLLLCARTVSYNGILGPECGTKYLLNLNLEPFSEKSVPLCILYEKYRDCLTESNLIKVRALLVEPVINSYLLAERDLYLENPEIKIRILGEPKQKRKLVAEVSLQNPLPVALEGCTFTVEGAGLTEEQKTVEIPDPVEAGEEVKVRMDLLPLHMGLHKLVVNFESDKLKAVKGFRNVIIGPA
Experimental: FIG. 17. Whole cell lysates (WCLs) of serum-starved MDAMB231 cells, as well as intact MVs generated by these cells treated without or with the tTG inhibitors T101 (cell-impermeable) or MDC (cell-permeable), were assayed for transamidation activity as readout by the incorporation of BPA into casein. The samples were then immunoblotted with antibodies against tTG, flotillin-2, and IκBα.
The transamidation activity in whole cell extracts was readout by the incorporation of BPA into lysate proteins as previously described, whereas the transamidation activity of recombinant tTG (0.1 μM) exposed to increasing concentrations of T101 was determined using a spectrophotometric assay. The transamidation activity associated with MVs was readout by incubating equal amounts (75 μl) of each MV sample in a buffer containing 40 mM N′N-dimethyl casein, 2 mM BPA, 40 mM CaCl2, and 40 mM dithiothreitol for 15 minutes. The reaction was stopped by the addition of Laemmli sample buffer followed by boiling. The reactions were then resolved by SDS-PAGE and the proteins transferred to polyvinylidene difluoride membranes. […]

[3] = tested on: NIH3T3 fibroblasts stably overexpressing Myc-tagged tTG; experiment: Cell death assay on NIH3T3 fibroblasts stably overexpressing Myc-tTG; assay type: cell-based; settings: serum-free medium, cells treated with MDC
Experimental: FIG. 23. Cell death assays were performed on the NIH3T3 stable cell lines maintained in serum-free medium that was treated with T101, MDC, or 2% CS-medium, or was untreated. Data represents the mean±s.d. from at least three independent experiments.
NIH3T3 cells or MCF10A cells were plated in each well of a 6-well dish and then cultured in medium containing 2% CS or serum-free medium supplemented without or with MVs derived from 5.0×10^6 MDAMB231 cells or U87 cells, and without or with MDC or T101, as indicated. Two days later the cultures were fixed and stained with DAPI for viewing by fluorescence microscopy. Cells undergoing apoptosis were identified by nuclear condensation or blebbing and the percentage of cell death was determined by calculating the ratio of apoptotic to total cells for each condition. These experiments were conducted at least three times and the results from each experiment were averaged together and graphed.

MDAMB231 cells [4] = experiment: Tumor formation assay in nude mice; assay type: in vivo; settings: cells exposed to mitomycin-C before subcutaneous injection into nude mice
Experimental: FIG. 25. Tumor formation assays were performed in which 5×10^5 mitotically-arrested (using mitomycin-C) MDAMB231 cells (denoted as Mito-C-MDAMB231) expressing either control siRNA (siCont) or tTG siRNAs (denoted as siTG-1 or siTG-2) were subcutaneously injected singly, or combined with 5×10^5 NIH3T3 fibroblasts, into nude mice. As controls, untreated MDAMB231 and NIH3T3 cells were injected into nude mice.
as §1, with “To mitotically arrest MDAMB231 cells, plates of cells were treated with 10 μg/ml mitomycin-C for 2 hours, before rinsing the solution away and allowing the cells to recover in growth medium (RPMI-1640 medium containing 10% FBS) for a day.” left out
5×10^5 mitotically arrested (using mitomycin-C) MDAMB231 cells stably expressing control or tTG siRNAs were combined with 5×10^5 NIH3T3 fibroblasts and growth factor-reduced Matrigel (BD Biosciences) to achieve 30% Matrigel in the final solution. […] After a month, the animals were sacrificed and the resulting tumors that formed for each experimental condition were excised and counted. […]

[5] = tested on: HeLa cervical carcinoma cells; experiment: MV formation in HeLa cells, rhodamine-phalloidin labeling; assay type: cell-based, human; settings: serum-starved HeLa cells, EGF stimulation
Experimental: FIG. 2. Quantification of MV production by various cell lines cultured under serum-starved or EGF-stimulated conditions. Cells generating MVs were detected by labeling the samples with rhodamine-conjugated phalloidin. The data shown represents the mean±s.d. from three independent experiments.
FIG. 3. Images of cells from the experiment performed in FIG. 2. Some of the MVs are denoted with arrows.
as §1

| Compound | effect on shedding of MVs (flotillin-2 and tTG in isolated MVs) (MDAMB231 cells [1]) | effect on MV formation (MDAMB231 cells [2]) | also measured |
| --- | --- | --- | --- |
| COc1cc2ncnc(Nc3cccc(Cl)c3)c2cc1OC [AG1478] |  |  | anchorage-independent growth advantage imparted by U87 cell-derived MVs (NIH3T3 fibroblasts): insensitive |
| C[C@H]1CCC/C=C/[C@@H]2C[C@H](O)C[C@H]2[C@H](O)/C=C/C(=O)O1 [BFA, brefelden A] | nor was it affected | not sensitive |  |
| COC(=O)c1ccccc1NC(=O)c1ccc(F)cc1 [ExoI] | nor was it affected | not sensitive |  |
| CN(C)c1cccc2c(S(=O)(=O)NCCCCCN)cccc12 [MDC, monodansylcadaverine] |  | had no effect | crosslinking activity associated with MVs (levels of BPA-labeled casein) (tTG): greatly diminished; resistance to serum-deprivation-induced apoptosis [3]: ablated |
| CO[C@@]12[C@H](COC(N)=O)C3=C(C(=O)C(C)=C(N)C3=O)N1C[C@@H]1N[C@@H]12 [mitomycin-C] |  |  | ability of MDAMB231 cells to form tumors (MDAMB231 cells [4]): inhibited |
| epidermal growth factor [EGF, growth factor used to stimulate cells] |  |  | MV formation [5]: induced |
